The structures appear in SMILES notation.

The target in one test is T1, NLRP3 inflammasome (Homo sapiens, UniProt Q96P20).
T1 construct: host or cells: THP1-Null cells (PMA-differentiated, LPS-primed, nigericin-stimulated)
T1 sequence (Q96P20 whole entry): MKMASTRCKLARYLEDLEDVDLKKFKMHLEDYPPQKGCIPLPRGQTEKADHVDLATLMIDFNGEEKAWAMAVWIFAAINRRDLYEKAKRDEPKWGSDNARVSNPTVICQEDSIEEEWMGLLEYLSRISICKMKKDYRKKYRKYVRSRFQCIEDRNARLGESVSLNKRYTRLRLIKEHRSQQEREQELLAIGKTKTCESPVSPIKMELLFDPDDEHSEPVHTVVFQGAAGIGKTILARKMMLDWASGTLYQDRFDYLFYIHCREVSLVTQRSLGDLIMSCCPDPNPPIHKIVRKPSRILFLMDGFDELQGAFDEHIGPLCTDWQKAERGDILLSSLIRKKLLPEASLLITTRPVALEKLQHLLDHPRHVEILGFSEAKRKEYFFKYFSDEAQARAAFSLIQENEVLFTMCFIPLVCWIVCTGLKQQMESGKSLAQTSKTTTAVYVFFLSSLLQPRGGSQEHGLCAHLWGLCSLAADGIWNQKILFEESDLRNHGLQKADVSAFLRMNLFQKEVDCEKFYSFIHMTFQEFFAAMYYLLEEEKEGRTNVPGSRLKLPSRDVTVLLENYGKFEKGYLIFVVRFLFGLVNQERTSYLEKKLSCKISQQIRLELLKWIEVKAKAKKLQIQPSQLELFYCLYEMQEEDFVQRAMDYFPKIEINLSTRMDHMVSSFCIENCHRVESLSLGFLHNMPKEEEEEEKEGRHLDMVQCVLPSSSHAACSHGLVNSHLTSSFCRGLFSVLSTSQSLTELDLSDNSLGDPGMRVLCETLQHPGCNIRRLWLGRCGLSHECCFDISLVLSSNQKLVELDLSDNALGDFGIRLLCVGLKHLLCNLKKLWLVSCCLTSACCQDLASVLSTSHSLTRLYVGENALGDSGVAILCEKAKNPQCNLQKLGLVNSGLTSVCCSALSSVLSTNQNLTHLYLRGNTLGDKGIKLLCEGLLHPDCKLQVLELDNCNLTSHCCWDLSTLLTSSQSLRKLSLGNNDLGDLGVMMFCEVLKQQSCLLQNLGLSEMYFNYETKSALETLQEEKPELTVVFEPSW
In words: Evaluation of NLRP3 inflammasome inhibitory activity (inhibition of IL-1β production in LPS/Nigericin-stimulated THP1-Null cells, AlphaLISA). As to conditions: IC50, IL-1β production in THP1-Null cells; PMA, 1 µg/mL Lipopolysaccharides 3 hours, Nigericin 7.5 µmol/L 1.5 hours. Format: cell-based. Here is the method:
The NLRP3 inflammasome inhibitory activity of test compounds were evaluated on the basis of the inhibitory activity of the IL-1β production in THP1-Null cells (Product Number: thp-null, InvivoGen).
The supernatant of the culture was removed, and thereto was added media for assay (25 µL/well) containing 1 µg/mL Lipopolysaccharides (Product Number: L2654, Sigma-Aldrich (registered trademark)). […] The supernatant of the culture was removed. […] A solution containing a test compound (20 µL/well) was added to test compound-setting wells. […] The supernatant of the culture was cryonically stored (set at -20°C) until measurement of IL-1β.
The amount of IL-1β in the culture supernatant was quantitated with AlphaLISA (registered trademark) Human IL-1β Detection Kit (Product Number: AL220C, Perkin Elmer). Fluorescence intensity was measured with a microplate reader EnSpier (Model number: 2300-00J, Perkin Elmer) or EnSight (Model number: HH34000000, Perkin Elmer) according to procedure manuals attached thereto. Inhibition rates of the test compound-setting wells were calculated on the basis of 100% for the blank-setting wells and 0% for the control-setting wells.
A general note: Bead proximity is the source of the signal in Alpha formats.
`Cc1nc2nn(-c3c(C)cc(Br)cc3C)cc2c(=O)[nH]1` [Example 18] showed a half-maximal inhibitory concentration (IC50) of 220 nM.

Compound `Cc1cc(C2CC2)cc(C)c1-n1cc2c(=O)[nH]c(C3CC4CCN3CC4)nc2n1` (racemic) [Example 119] returned an IC50 of 31 nM.

The same test, now with this note: IL-1β production in THP1-Null cells; PMA, 1 µg/mL Lipopolysaccharides 3 hours, Nigericin 7.5 µmol/L 1.5 hours.
For the compound `COC1CC(c2nc3nn(-c4c(C)cc(Br)cc4C)cc3c(=O)[nH]2)C1` (single isomer, unassigned) [Example 121], the IC50 turned out to be 38 nM.

With `Cc1cc(C2CC2)cc(C)c1-n1cc2c(=O)[nH]c(C3CCOC3)nc2n1` (single isomer, unassigned) [Example 50], the IC50 is 5 nM.

`Cc1cc(C2CC2)cc(C)c1-n1cc2c(=O)[nH]c(C3(F)CCOC3)nc2n1` (single isomer, unassigned) [Example 79] gave an IC50 of 75 nM.

`Cc1cc(Br)cc(C)c1-n1cc2c(=O)[nH]c([C@@H]3C[C@@H]3F)nc2n1` [Example 91]: half-maximal inhibition (IC50) required 8 nM.

On to `Cc1cc(C(C)(F)F)cc(C)c1-n1cc2c(=O)[nH]c(C3(F)CCOC3)nc2n1` (single isomer, unassigned) [Example 130], for which half-maximal inhibition (IC50) required 240 nM.

In turn, `Cc1cc(OC(F)F)cc(C)c1-n1cc2c(=O)[nH]c(C3COCC3F)nc2n1` (single isomer, unassigned) [Example 183] showed an IC50 of 35 nM.

On to `Cc1cc(C2CC2)cc(C)c1-n1cc2c(=O)[nH]c(C(C)O)nc2n1` (single isomer, unassigned) [Example 157], for which the IC50 was 340 nM.

`Cc1cc(OC(F)F)cc(C)c1-n1cc2c(=O)[nH]c(C3COCC3F)nc2n1` (single isomer, unassigned) [Example 182] registered an IC50 of 8 nM.

`Cc1cc(C2CC2)cc(C)c1-n1cc2c(=O)[nH]c(C(C)O)nc2n1` (single isomer, unassigned) [Example 156]: the IC50 stood at 13 nM.

Regarding `Cc1cc(C2CC2)cc(C)c1-n1cc2c(=O)[nH]c(C3CCOC3)nc2n1` (single isomer, unassigned) [Example 51], inhibition was half-maximal at 24 nM (IC50).

`Cc1cc(C(C)(F)F)cc(C)c1-n1cc2c(=O)[nH]c(C3CCOCCO3)nc2n1` (single isomer, unassigned) [Example 187] showed an IC50 of 67 nM.

Compound `Cc1cc(C(C)(F)F)cc(C)c1-n1cc2c(=O)[nH]c(C3(F)CCOC3)nc2n1` (single isomer, unassigned) [Example 129] yielded an IC50 of 50 nM.

`Cc1cc(OC(F)F)cc(C)c1-n1cc2c(=O)[nH]c(C3CC3F)nc2n1` (single isomer, unassigned) [Example 173] yielded an IC50 of 15 nM.

`Cc1cc(Br)cc(C)c1-n1cc2c(=O)[nH]c(C3CC3F)nc2n1` (centres unmarked) [Example 92] showed an IC50 of 7 nM.

As to `Cc1cc(C(C)(F)F)cc(C)c1-n1cc2c(=O)[nH]c(C3CCOCCO3)nc2n1` (single isomer, unassigned) [Example 188], the IC50 was found to be 190 nM.

Still in this test, the particulars now being: IL-1β production in THP1-Null cells; PMA, 1 µg/mL Lipopolysaccharides 3 hours, Nigericin 7.5 µmol/L 1.5 hours; read-out: IC50.
For `Cc1cc(C2CC2)cc(C)c1-n1cc2c(=O)[nH]c(C3(C)COC3)nc2n1` [Example 44], the IC50 stood at 47 nM.

With `Cc1cc(C(C)(F)F)cc(C)c1-n1cc2c(=O)[nH]c([C@H]3C[C@@H]3F)nc2n1` (racemic) [Example 142, 2-[4-(1,1-difluoroethyl)-2,6-dimethylphenyl]-6-[(1RS,2SR)-2-fluorocyclopropyl]-2,5-dihydro-4H-pyrazolo[3,4-d]pyrimidin-4-one], the IC50 was 17 nM.

Regarding `CCc1nc2nn(-c3c(C)cc(OC(F)F)cc3C)cc2c(=O)[nH]1` [Example 180], the IC50 came out at 20 nM.

`Cc1cc(C(C)(F)F)cc(C)c1-n1cc2c(=O)[nH]c(C(C)O)nc2n1` (racemic) [Example 144, (RS)-2-{4-(1,1-difluoroethyl)-2,6-dimethylphenyl}-6-(1-hydroxyethyl)-2,5-dihydro-4H-pyrazolo[3,4-d]pyrimidin-4-one]: the IC50 came out at 58 nM.

As to `Cc1ccc(-n2cc3c(=O)[nH]c(C4CCCOC4)nc3n2)c(C)c1` (racemic) [Example 34], the IC50 stood at 200 nM.

Consider `Cc1c(-n2cc3c(=O)[nH]c(C4CCCC4)nc3n2)c(C(F)(F)F)nn1C(C)C` [Example 65], for which the IC50 was 300 nM.

Regarding `Cc1cc(C2CC2)cc(C)c1-n1cc2c(=O)[nH]c(C3CC(F)(F)CO3)nc2n1` (racemic) [Example 190], the IC50 turned out to be 41 nM.

On to `CNC(=O)c1nc2nn(-c3c(C)cc(C(C)(F)F)cc3C)cc2c(=O)[nH]1` [Example 207], for which the IC50 came to 270 nM.

In the case of `Cc1cc(OC(F)F)cc(C)c1-n1cc2c(=O)[nH]c(C3CC3(F)F)nc2n1` (racemic) [Example 133], the IC50 was 41 nM.

Consider `Cc1cc(Br)cc(C)c1-n1cc2c(=O)[nH]c(C3CCOCC3)nc2n1` [Example 81], for which the IC50 came to 4 nM.

On to `Cc1cc(OC(F)F)cc(C)c1-n1cc2c(=O)[nH]c([C@@H](C)O)nc2n1` (single isomer, unassigned) [Example 165], for which the IC50 worked out at 75 nM.

On to `Cc1ccc(-n2cc3c(=O)[nH]c(C(F)F)nc3n2)c(C)c1` [Example 10], for which the IC50 came out at 13000 nM.

In the case of `Cc1cc(Br)cc(C)c1-n1cc2c(=O)[nH]c([C@H]3CCOCCO3)nc2n1` [Example 185], the IC50 was determined as 23 nM.

`Cc1cc(Br)cc(C)c1-n1cc2c(=O)[nH]c(C3CCOCCO3)nc2n1` (racemic) [Example 160]: the IC50 turned out to be 37 nM.

Consider `Cc1cc(OC(F)F)cc(C)c1-n1cc2c(=O)[nH]c(C3(F)CCOCC3)nc2n1` [Example 136], for which the IC50 is 49 nM.

Regarding `Cc1cc(C(C)(F)F)cc(C)c1-n1cc2c(=O)[nH]c(C3(F)COC3)nc2n1` [Example 116], the IC50 was determined as 280 nM.

`Cc1cc(Br)cc(C)c1-n1cc2c(=O)[nH]c(C3CC3C#N)nc2n1` (racemic) [Example 151]: the concentration for half-maximal inhibition (IC50) was 17 nM.

On to `Cc1cc(OC(F)F)cc(C)c1-n1cc2c(=O)[nH]c(CC3CC3)nc2n1` [Example 164], for which the IC50 was determined as 67 nM.

On to `Cc1cc(Br)cc(C)c1-n1cc2c(=O)[nH]c(C3CCC(F)(F)CO3)nc2n1` (racemic) [Example 191], for which the 50% inhibitory concentration (IC50) amounted to 72 nM.

Consider `Cc1cc(OC(F)F)cc(C)c1-n1cc2c(=O)[nH]c(C3(F)CC3)nc2n1` [Example 159], for which the IC50 was determined as 57 nM.

Regarding `Cc1cc(OC(F)F)cc(C)c1-n1cc2c(=O)[nH]c(CCO)nc2n1` [Example 209], the IC50 was 25 nM.

Regarding `Cc1cc(C2CC2)cc(C)c1-n1cc2c(=O)[nH]c(C34CC(F)(C3)C4)nc2n1` [Example 49], the IC50 is 24 nM.

`Cc1cc(OC(F)F)cc(C)c1-n1cc2c(=O)[nH]c(C3=CCOCC3)nc2n1` [Example 135]: the concentration for half-maximal inhibition (IC50) came to 33 nM.

For the compound `Cc1cc(C2CC2)cc(C)c1-n1cc2c(=O)[nH]c(COCC3CCOCC3)nc2n1` [Example 47], the IC50 was 180 nM.

Take `Cc1ccc(-n2cc3c(=O)[nH]c(C4CC4)nc3n2)c(C)c1` [Example 3]: the IC50 came to 240 nM.

As to `Cc1ccc(-n2cc3c(=O)[nH]c(CC(C)C)nc3n2)c(C)c1` [Example 6], the IC50 worked out at 430 nM.

With `Cc1cc(C2CC2)cc(C)c1-n1cc2c(=O)[nH]c(COC3CCCOC3)nc2n1` (racemic) [Example 57], the IC50 came out at 340 nM.

On to `COCc1cc(C2CC2)ccc1-n1cc2c(=O)[nH]c(C3CC3)nc2n1` [Example 25], for which the IC50 was 44 nM.

Regarding `Cc1cc(OC(F)F)cc(C)c1-n1cc2c(=O)[nH]c(C(C)O)nc2n1` (racemic) [Example 141, (RS)-2-{4-(difluoromethoxy)-2,6-dimethylphenyl}-6-(1-hydroxyethyl)-2,5-dihydro-4H-pyrazolo[3,4-d]pyrimidin-4-one], the IC50 came out at 61 nM.

Consider `Cc1ccccc1-n1cc2c(=O)[nH]c(C3CCCC3)nc2n1` [Example 1], for which the IC50 came to 2300 nM.

`COCc1cc(C2CC2)cc(C)c1-n1cc2c(=O)[nH]c(C3CC3)nc2n1` [Example 58]: the IC50 came out at 36 nM.

Consider `Cc1cc(C2CC2)cc(C)c1-n1nc2nc(C3CC3)[nH]c(=O)c2c1CF` [Example 84], for which the IC50 is 15 nM.

As for `Cc1cc(C(C)(F)F)cc(C)c1-n1cc2c(=O)[nH]c([C@H](C)O)nc2n1` (single isomer, unassigned) [Example 155], the IC50 was 610 nM.

`Cc1cc(Br)cc(C)c1-n1cc2c(=O)[nH]c(Cn3cccn3)nc2n1` [Example 62]: the IC50 is 230 nM.

Consider `Cc1cc(OC(F)F)cc(C)c1-n1cc2c(=O)[nH]c(C(O)C(F)F)nc2n1` (racemic) [Example 167], for which the IC50 stood at 230 nM.

For the compound `Cc1cc(OC(F)F)cc(C)c1-n1cc2c(=O)[nH]c(C3(O)CCOCC3F)nc2n1` (single isomer, unassigned) [Example 174], the IC50 amounted to 30 nM.

Take `Cc1cc(Br)cc(C)c1-n1cc2c(=O)[nH]c(C3(F)CCOCC3)nc2n1` [Example 97]: the IC50 is 24 nM.

The same test, now with this note: test compound at 2.4 µM; IL-1β production in THP1-Null cells.
In the case of `Cc1ccc(-n2cc3c(=O)n(CC(=O)N(C)C)c(C)nc3n2)c(C)c1` [Example 16], the inhibition at 2.4 µM is -14%.

The same test, now with this note: test compound at 24 µM; IL-1β production in THP1-Null cells.
On to `Cc1ccc(-n2cc3c(=O)n(C)c(C)nc3n2)c(C)c1` [Example 13, 2-(2,4-dimethylphenyl)-5,6-dimethyl-2,5-dihydro-4H-pyrazolo[3,4-d]pyrimidin-4-one], for which the inhibition at 24 µM came to 3%.

By IC50 is commonly meant the concentration that gives 50% inhibition. In general, inhibition refers to the change of the read-out against control, counted positive when it falls.
